Source: patent US20140329903A1, “TREATMENT OF NEURODEGENERATIVE DISEASES” (ACADIA PHARMACEUTICALS INC., priority 2011, published 2014)

Assays:
RXRE & Nurr1 = assay: Reporter gene transcription assay pRXRE & Nurr1; type: cell-based
From the text: We have enabled assays to detect ligand-induced gene transcription (reporter gene assays) in order to confirm results obtained in BRET2 assays.

[1] = system: rat primary dopaminergic neurons; assay: Restorative effect after MPP+ injury in primary mesencephalic cultures; type: cell-based
Procedure: BDNF was used as a positive control in this study.
Rat dopaminergic neurons were cultured as described by Schinelli et al., 1988. Briefly pregnant female rats of 15 days gestation were killed by cervical dislocation (Rats Wistar; Janvier) and the foetuses removed from the uterus. The embryonic midbrains were removed and placed in ice-cold medium of Leibovitz (L15; PAN) containing 2% of Penicillin-Streptomycin (PS; Invitrogen) and 1% of bovine serum albumin (BSA; PAN). Only the ventral portions of the mesencephalic flexure were used for the cell preparations as this is the region of the developing brain rich in dopaminergic neurons. The midbrains were dissociated by trypsinisation for 20 min at 37° C. (Trypsin EDTA 1×; PAN) diluted in PBS without calcium and magnesium. The reaction was stopped by the addition of Dulbecco's modified Eagle's medium (DMEM; PAN) containing DNAase I grade II (0.5 mg/ml; PAN) and 10% of fetal calf serum (FCS; Gibco). Cells were then mechanically dissociated by 3 passages through a 10 ml pipette. Cells were then centrifuged at 180×g for 10 min at +4° C. on a layer of BSA (3.5%) in L15 medium. The supernatant was discarded and the cells of pellet were re-suspended in a defined culture medium consisting of Neurobasal (Gibco) supplemented with B27 (2%; Gibco), L-glutamine (0.2 mM; Invitrogen) 2% of PS solution and 10 ng/ml BDNF (PAN) and 1 ng/ml GDNF. (PAN) Viable cells were counted in a Neubauer cytometer using the trypan blue exclusion test. The cells were seeded at a density of 40000 cells/well in 96 well-plates (wells were pre-coated with poly-L-lysine (greiner) and were cultured at 37° C. in a humidified air (95%)/CO2 (5%) atmosphere. Half of the medium was changed every 2 days with fresh medium.
Briefly, on day 6 of culture, the medium was removed and fresh medium was added, without or with MPP+ at 4 μM. […] In all wells, the final concentrations were in 0.1% DMSO. After permeabilization with 0.1% saponin (Sigma), cells were incubated with mouse monoclonal primary against tyrosine hydroxylase antibody (TH, Sigma) to stain specifically dopaminergic neurons. […] The number of TH neurons and total neurite of TH neurons were measured in each well.
For each condition, 2×10 pictures per well were taken in the same condition using InCell Analyzer™ 1000 (GE Healthcare) with 10× magnification. The analyses were automatically done using developer software (GE Healthcare) to measure the total number of TH positive neurons. Two means of 10 pictures were automatically performed by well. Data were expressed in percentage of control condition. […]
For each condition, 10 pictures per well were taken in the same condition using InCell Analyzer™ 1000 (GE Healthcare) with 10× magnification. […] 6 wells per conditions were analyzed. […]

[2] = human, in vivo
From the text: Linear regression was fitted through x=0 and y=0. […] Data taken from Miller et al., J. Clin. Oncol.
Extrapolation of AUC and dose between species.

in vivo = details: rat, plasma, po

Structure (SMILES): C=C(c1ccc(C(=O)O)cc1)c1cc2c(cc1C)C(C)(C)CCC2(C)C [Bexarotene, bexarotene]
- EC50 (RXRE & Nurr1): 41 nM
- Eff % (RXRE & Nurr1; pRXRE & Nurr1, normalized to 9-cis retinoic acid): 65%
- neurotrophic effect compared with BDNF ([1]; 300 nM, after 24 h MPP+ 4 μM): as high as the one of BDNF
- length of TH neurite ([1]; 100 and 300 nM, after 24 h MPP+ 4 μM): significant effect
- total number of TH neurons ([1]; all tested concentrations (0.3-300 nM), 48 h, applied after 24 h MPP+ 4 μM): increase
- slope m1 of AUC versus oral dose in humans [2]: 1.735
- slope m2 of AUC versus oral dose in humans [2]: 2.030
- AUC (in vivo; 60 mg/kg): 33 µM·h
- AUC (in vivo; 60 mg/kg/day): 33 µM·h
